Reference: US11331333B2, “Treatment of aberrant fibroblast proliferation” (Georg August Universitaet Goettingen Stiftung Oeffentlichen …, priority 2019, dated 2022)

How the values were obtained:
[1] = test system: human TK173 and TZ1 cultures; assay: DNA damage response foci and NHEJ/HR reporters after NCS exposure in human fibroblast cultures; assay type: cell-based
Description: FIGS. 20A to D depict average foci per nucleus detected in human TK173 and TZ1 cultures transfected with EYA1Δe10-ASO and labelled for γH2A.X^pS139 (FIG. 20A), γH2A.X^pS139/γH2A.X^py142 (FIG. 20B), γH2A.X^pS139/53Bp1 (FIG. 20C), and γH2A.X^pS139/Rpa1 (FIG. 20D) at indicated time points after NCS exposure (n=100 nuclei each, data are presented as means±s.d.). FIGS. 20E and F depict data on the analysis of NHEJ and HR events […] (NHEJ, FIG. 20E) and pDR-GFP (HR, FIG. 20F) reporter plasmids (n=3 independent replicates, data are presented as means±s.d., **p<0.01, ***p<0.001, values of p were calculated using Student's t test comparing indicated groups). FIG. 20G depicts proliferative activity of human kidney fibroblasts at indicated time points after seeding at a density of 60,000 per well (n=3 independent replicates, data are presented as means s.d., and *p<0.05, values of p were calculated using Student's t test comparing EYA1Δe10-ASO-transfected TZ1 with untreated TZ1 cultures). FIG. 20H depicts an analysis of p-Chk1^pS317 and p-Chk2^PT68 by SDS-PAGE and subsequent immunoblotting 24 hours after NCS exposure. […]

[2] = test system: DNA damage checkpoint activation; assay: Immunoblotting of p-Chk1^pS317 and p-Chk2^pT68 after NCS exposure; assay type: cell-based, human; conditions: 24 hours after NCS exposure
Description: FIGS. 20A to D depict average foci per nucleus detected in human TK173 and TZ1 cultures transfected with EYA1Δe10-ASO and labelled for γH2A.X^pS139 (FIG. 20A), γH2A.X^pS139/γH2A.X^py142 (FIG. 20B), γH2A.X^pS139/53Bp1 (FIG. 20C), and γH2A.X^pS139/Rpa1 (FIG. 20D) at indicated time points after NCS exposure (n=100 nuclei each, data are presented as means±s.d.). FIGS. 20E and F depict data on the analysis of NHEJ and HR events […] (NHEJ, FIG. 20E) and pDR-GFP (HR, FIG. 20F) reporter plasmids (n=3 independent replicates, data are presented as means±s.d., **p<0.01, ***p<0.001, values of p were calculated using Student's t test comparing indicated groups). FIG. 20G depicts proliferative activity of human kidney fibroblasts at indicated time points after seeding at a density of 60,000 per well (n=3 independent replicates, data are presented as means s.d., and *p<0.05, values of p were calculated using Student's t test comparing EYA1Δe10-ASO-transfected TZ1 with untreated TZ1 cultures). FIG. 20H depicts an analysis of p-Chk1^pS317 and p-Chk2^PT68 by SDS-PAGE and subsequent immunoblotting 24 hours after NCS exposure.
Tissue and cells were homogenized in NP40 lysis buffer (Life technologies, Carlsbad, USA) supplemented with protease inhibitor cocktail (Roche, Basel, Switzerland). […]

EYA1Δe10-ASO: oligonucleotides targeting intron 9-10/exon 10 (SEQ ID NO: 5) and exon 10/intron 10-11 (SEQ ID NO: 4) splice junctions (antisense 1 CCTTGGACTGCGAATG; antisense 2 TTTCAACTTGGCAGTA; listed as DNA, chemistry not given here)
premature γH2A.X^pY14 dephosphorylation ([1]; TZ1, after NCS exposure): normalization | HR DDR ([1]; TZ1, pDR-GFP reporter, Rpa1 foci): increased HR DDR | DNA damage checkpoint activation [2]: normalized DNA damage checkpoint activation
